Results reported in ChEMBL document CHEMBL1201862, “PubChem BioAssay data set” (2004).
Active and inactive are the calls of the source.

Tests used:
Paired box protein Pax-8 = Paired box protein Pax-8 (Homo sapiens, UniProt Q06710); experiment: PAX8 transcriptional activity inhibition in RMG-I – RMG-I cells, luciferase, cherry-pick, dose response (AID 687027); assay type: functional, cell-based;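 also: luciferase reporter driven by Pax8 target thyroperoxidase promoter measured by SteadyGlo luminescence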
[1] = general cell-killing toxicity readout – plate reader, dry powder samples, cytotoxicity control for PAX8 inhibitor project, dose response (AID 743021); assay type: functional, cell-based
Beta-lactamase [2] = target: Beta-lactamase (Salmonella choleraesuis (strain SC-B67), UniProt Q5J463); experiment: Epi-absorbance-based counterscreen for selective VIM-2 inhibitors: dose response biochemical high throughput screening assay to identify inhibitors of TEM-1 serine-beta-lactamase.
Beta-lactamase [3] = target: T1, Beta-lactamase (Pseudomonas aeruginosa, UniProt Q79MP6); experiment: inhibition of IMP-1 beta-lactamase activity – biochemical, epi-absorbance, selectivity assay for VIM-2 inhibitor project, dose response (AID 1920)
Beta-lactamase [4] = target: T1, Beta-lactamase; experiment: […] counterscreen for selective VIM-2 inhibitors: dose response biochemical high throughput screening assay to identify inhibitors of IMP-1 metallo-beta-lactamase.
Beta-galactosidase = Beta-galactosidase (Escherichia coli, UniProt Q8VNN2); experiment: Dose response counterscreen for EBI2 assay utilizing the enzyme, b-galactosidase.; assay type: functional
Bcl-2-like protein 10 = target: T2, Bcl-2-like protein 10 (Homo sapiens, UniProt Q9HD36); experiment: Bcl-B/TR3 peptide binding disruption – biochemical, fluorescence polarization, FITC-TR3 peptide, selectivity assay for Bfl-1 inhibitor project, primary screen (AID 748);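 also: fluorescence polarization from a fluorescein-labelled TR3 peptide binding purified Bcl-B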
T2 sequence (Q9HD36 whole entry): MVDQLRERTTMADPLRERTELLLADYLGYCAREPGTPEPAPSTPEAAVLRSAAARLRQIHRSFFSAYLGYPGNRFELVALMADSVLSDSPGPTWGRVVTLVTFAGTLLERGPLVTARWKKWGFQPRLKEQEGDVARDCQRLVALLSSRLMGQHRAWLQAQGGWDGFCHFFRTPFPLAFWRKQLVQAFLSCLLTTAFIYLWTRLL

cells [5] = settings: A549
cells [6] = experiment: cells
HEK293 = experiment: viability loss in HEK293T cells – cell-based, ATP luminescence, cherry-pick samples, cytotoxicity control, dose response (AID 687005); assay type: functional; settings: Homo sapiens;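 also: cells exposed to compound for 48 hours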
[7] = HEK293 Cytotoxicity Assay Measured in Cell-Based System Using Plate Reader - 7071-01_Inhibitor_Dose_CherryPick_Activity_Set2.; assay type: functional
Vero = experiment: cells; assay type: functional; settings: Chlorocebus sabaeus
[8] = target: T3, Methionyl-tRNA synthetase, putative (Trypanosoma brucei brucei, UniProt Q38C91); assay type: functional, Trypanosoma brucei brucei strain 927/4 GUTat10.1
[9] = Counterscreen for inhibitors of Trypanosoma brucei methionyl tRNA synthetase (MetRS): Luminescence-based cell-based high throughput dose response assay to identify compounds that are cytotoxic to Jurkat human T lymphocyte cells.; assay type: functional
[10] = target: T3, Methionyl-tRNA synthetase, putative; assay type: functional, Trypanosoma brucei brucei strain 927/4 GUTat10.1; remark: listed apart in the source
[11] = Late stage counterscreen for inhibitors of Trypanosoma brucei methionyl tRNA synthetase (MetRS): Luminescence-based cell-based high throughput dose response assay to identify compounds that are cytotoxic to Jurkat human T lymphocyte cells.; assay type: functional
Large T antigen = Large T antigen (Simian virus 40, UniProt P03070); assay type: functional, Betapolyomavirus macacae;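 also: Confirmatory-stage PubChem screen for compounds that inhibit SV40 T antigen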
INS1 = experiment: INS-1E survival protection against cytokine death – cell-based, luminescence, retest, dose response (AID 449756); assay type: functional; settings: Rattus norvegicus;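 also: cell death triggered by IL-1 beta plus TNF-alpha plus IFN-gamma mixture; protective hits raise ATP signal compared with cytokine alone wells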
[12] = viability loss in HeLa cells – cytotoxicity control for MgcRacGAP inhibitor project, dose response (AID 624300); assay type: functional
Protein Wnt-3a = Protein Wnt-3a (Mus musculus, UniProt P27467); experiment: antagonism of Wnt3a pathway luciferase reporter – Wnt-LIGHT cells, luminescence, selectivity assay for Gli-SUFU antagonist project, dose response (AID 651570); assay type: functional; settings: read-out: IC50_Mean;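 also: Wnt-LIGHT reporter cells stimulated with conditioned medium from Wnt3a-producing cells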
[13] = target: T4, Rac GTPase-activating protein 1 (Homo sapiens, UniProt Q9H0H5); experiment: blockers of MgcRacGAP-driven Rac1 GTP hydrolysis – biochemical, ADP Hunter fluorescence, primary and confirmatory, confirmation (AID 624330); assay type: functional
T4 sequence (Q9H0H5 whole entry): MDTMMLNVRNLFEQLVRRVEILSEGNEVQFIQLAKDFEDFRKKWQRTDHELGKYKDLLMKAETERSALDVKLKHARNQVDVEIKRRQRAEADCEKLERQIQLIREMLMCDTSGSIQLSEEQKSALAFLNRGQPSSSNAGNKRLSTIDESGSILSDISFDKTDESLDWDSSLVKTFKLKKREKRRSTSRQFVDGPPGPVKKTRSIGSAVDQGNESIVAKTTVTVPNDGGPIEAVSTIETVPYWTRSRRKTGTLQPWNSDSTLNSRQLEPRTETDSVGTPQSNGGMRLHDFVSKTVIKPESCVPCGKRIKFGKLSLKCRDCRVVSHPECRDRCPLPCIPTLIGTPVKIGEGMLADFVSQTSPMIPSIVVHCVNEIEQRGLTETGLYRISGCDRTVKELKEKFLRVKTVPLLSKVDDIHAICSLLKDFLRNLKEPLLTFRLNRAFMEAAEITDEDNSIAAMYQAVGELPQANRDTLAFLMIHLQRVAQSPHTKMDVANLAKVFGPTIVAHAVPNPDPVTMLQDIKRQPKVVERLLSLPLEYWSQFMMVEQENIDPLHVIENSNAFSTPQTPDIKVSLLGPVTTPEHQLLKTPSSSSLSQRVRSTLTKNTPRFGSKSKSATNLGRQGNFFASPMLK

[14] = target: Matrix metalloproteinase-14 (Homo sapiens, UniProt P50281); experiment: Dose Response confirmation of uHTS hits for a small molecule inhibitors of MT1-MMP activation in a fluorescence assay set 2.; assay type: functional
[15] = activation of miR-122 Renilla sensor silencing – cell-based, Huh7 psiCHECK-miR122, Renilla luciferase, cherry-picked, dose response (AID 651956); assay type: functional;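 also: huh7 hepatoma cells stably carrying a psiCHECK-2 miR-122 sensor plasmid; renilla luciferase signal reporting endogenous miR-122 activity after 48 h compound exposure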
[16] = COV362 cell viability loss – plate reader, dry powder, SA12, cytotoxicity control for PAX8 inhibitor project, dose response (AID 743144); assay type: functional, cell-based
[17] = toxicity toward immortalized ovarian surface epithelium – cell-based, plate reader, dry powder samples, cytotoxicity control for PAX8 inhibitor project, dose response (AID 743045); assay type: functional
[18] = reduced cellular PGC1a acetyl-lysine signal – cell-based, cherry-picked samples, dose response (AID 720514); assay type: functional;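 also: potency may reflect raised or lowered acetylation signal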
[19] = OVCAR-3 cell viability loss – plate reader, dry powder samples, PAX8 inhibitor project, dose response (AID 743044); assay type: functional, cell-based
[20] = IGROV1 cell killing – plate reader, dry powder samples, PAX8 inhibitor project, dose response (AID 743043); assay type: functional, cell-based; settings: IGROV-1
[21] = OVCAR4 cell viability loss – plate reader, dry powder, SA11, cytotoxicity control for PAX8 inhibitor project, dose response (AID 743150); assay type: functional, cell-based; settings: OVCAR-4
[22] = COV434 cell viability loss – plate reader, dry powder, SA7, cytotoxicity control for PAX8 inhibitor project, dose response (AID 743145); assay type: functional, cell-based
[23] = OV-90 cell viability loss – plate reader, dry powder, SA8, PAX8 inhibitor project, dose response (AID 743149); assay type: functional, cell-based
[24] = OVCAR8 cell viability loss – plate reader, dry powder samples, PAX8 project, dose response (AID 743197); assay type: functional, cell-based; settings: OVCAR-8
[25] = PAX8-dependent cell viability loss – plate reader, dry powder, dose response (AID 743049); assay type: functional, cell-based
[26] = A2780 cell killing – plate reader, dry powder samples, cytotoxicity control, dose response (AID 743046); assay type: functional, cell-based

Chain of Paired box protein Pax-8 (Q06710 whole entry): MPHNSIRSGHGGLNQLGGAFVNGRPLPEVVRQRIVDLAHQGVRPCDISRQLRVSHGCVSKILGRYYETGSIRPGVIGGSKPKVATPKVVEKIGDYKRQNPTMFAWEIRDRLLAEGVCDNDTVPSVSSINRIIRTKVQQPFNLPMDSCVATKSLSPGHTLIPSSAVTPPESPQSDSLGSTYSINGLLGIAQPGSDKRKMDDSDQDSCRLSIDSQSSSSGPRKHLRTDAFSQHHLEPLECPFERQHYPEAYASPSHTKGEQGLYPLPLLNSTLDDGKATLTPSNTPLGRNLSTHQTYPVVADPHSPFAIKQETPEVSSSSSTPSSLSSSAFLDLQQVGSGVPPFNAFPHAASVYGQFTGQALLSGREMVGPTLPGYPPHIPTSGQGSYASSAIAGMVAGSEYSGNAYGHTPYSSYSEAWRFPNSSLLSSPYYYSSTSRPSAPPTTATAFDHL
T3 sequence (Q38C91 whole entry): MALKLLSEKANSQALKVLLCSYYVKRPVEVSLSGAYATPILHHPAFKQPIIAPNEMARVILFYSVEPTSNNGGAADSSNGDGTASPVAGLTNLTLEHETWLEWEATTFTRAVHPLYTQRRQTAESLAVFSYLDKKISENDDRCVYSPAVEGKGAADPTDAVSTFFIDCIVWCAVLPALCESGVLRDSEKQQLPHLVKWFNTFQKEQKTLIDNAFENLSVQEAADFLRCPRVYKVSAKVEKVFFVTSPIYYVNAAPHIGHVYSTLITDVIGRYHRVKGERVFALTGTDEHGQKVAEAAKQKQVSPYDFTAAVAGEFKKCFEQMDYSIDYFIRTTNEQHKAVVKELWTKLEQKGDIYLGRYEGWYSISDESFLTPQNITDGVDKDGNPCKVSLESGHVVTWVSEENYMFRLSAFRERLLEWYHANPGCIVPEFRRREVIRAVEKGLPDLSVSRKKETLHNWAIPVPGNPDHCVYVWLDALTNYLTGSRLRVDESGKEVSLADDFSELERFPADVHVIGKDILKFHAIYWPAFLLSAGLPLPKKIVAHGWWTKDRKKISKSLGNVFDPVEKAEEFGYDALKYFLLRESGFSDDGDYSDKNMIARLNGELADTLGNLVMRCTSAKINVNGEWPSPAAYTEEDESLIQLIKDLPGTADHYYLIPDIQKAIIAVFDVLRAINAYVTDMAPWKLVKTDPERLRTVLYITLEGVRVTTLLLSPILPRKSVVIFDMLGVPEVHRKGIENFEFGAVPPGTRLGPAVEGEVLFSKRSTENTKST
T1 sequence (Q79MP6 whole entry): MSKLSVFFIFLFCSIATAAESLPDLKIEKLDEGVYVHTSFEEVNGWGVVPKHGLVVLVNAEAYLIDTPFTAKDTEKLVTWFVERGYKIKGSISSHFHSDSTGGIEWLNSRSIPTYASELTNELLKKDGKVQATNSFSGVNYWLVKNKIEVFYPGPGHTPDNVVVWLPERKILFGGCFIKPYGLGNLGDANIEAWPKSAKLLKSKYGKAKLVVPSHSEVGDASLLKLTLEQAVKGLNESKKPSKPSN
Chain of Protein Wnt-3a (P27467 whole entry): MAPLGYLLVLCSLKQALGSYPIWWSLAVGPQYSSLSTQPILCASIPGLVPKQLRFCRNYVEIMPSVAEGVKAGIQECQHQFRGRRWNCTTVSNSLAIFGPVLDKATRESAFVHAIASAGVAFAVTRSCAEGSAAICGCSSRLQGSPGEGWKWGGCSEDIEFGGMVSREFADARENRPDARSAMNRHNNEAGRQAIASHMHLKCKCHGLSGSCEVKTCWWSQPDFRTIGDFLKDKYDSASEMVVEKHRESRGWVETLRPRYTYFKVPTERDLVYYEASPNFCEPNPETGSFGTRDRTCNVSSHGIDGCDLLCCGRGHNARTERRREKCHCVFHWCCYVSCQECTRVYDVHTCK
Chain of Beta-lactamase (Salmonella choleraesuis (strain SC-B67), UniProt Q5J463) (Q5J463 whole entry): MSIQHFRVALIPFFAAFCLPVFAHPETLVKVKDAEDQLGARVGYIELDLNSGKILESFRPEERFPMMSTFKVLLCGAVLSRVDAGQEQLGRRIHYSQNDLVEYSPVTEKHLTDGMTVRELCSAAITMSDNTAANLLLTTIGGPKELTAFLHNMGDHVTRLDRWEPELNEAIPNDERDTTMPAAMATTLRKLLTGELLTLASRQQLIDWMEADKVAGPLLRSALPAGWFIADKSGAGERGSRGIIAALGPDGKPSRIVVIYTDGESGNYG
Chain of Beta-galactosidase (Q8VNN2 whole entry): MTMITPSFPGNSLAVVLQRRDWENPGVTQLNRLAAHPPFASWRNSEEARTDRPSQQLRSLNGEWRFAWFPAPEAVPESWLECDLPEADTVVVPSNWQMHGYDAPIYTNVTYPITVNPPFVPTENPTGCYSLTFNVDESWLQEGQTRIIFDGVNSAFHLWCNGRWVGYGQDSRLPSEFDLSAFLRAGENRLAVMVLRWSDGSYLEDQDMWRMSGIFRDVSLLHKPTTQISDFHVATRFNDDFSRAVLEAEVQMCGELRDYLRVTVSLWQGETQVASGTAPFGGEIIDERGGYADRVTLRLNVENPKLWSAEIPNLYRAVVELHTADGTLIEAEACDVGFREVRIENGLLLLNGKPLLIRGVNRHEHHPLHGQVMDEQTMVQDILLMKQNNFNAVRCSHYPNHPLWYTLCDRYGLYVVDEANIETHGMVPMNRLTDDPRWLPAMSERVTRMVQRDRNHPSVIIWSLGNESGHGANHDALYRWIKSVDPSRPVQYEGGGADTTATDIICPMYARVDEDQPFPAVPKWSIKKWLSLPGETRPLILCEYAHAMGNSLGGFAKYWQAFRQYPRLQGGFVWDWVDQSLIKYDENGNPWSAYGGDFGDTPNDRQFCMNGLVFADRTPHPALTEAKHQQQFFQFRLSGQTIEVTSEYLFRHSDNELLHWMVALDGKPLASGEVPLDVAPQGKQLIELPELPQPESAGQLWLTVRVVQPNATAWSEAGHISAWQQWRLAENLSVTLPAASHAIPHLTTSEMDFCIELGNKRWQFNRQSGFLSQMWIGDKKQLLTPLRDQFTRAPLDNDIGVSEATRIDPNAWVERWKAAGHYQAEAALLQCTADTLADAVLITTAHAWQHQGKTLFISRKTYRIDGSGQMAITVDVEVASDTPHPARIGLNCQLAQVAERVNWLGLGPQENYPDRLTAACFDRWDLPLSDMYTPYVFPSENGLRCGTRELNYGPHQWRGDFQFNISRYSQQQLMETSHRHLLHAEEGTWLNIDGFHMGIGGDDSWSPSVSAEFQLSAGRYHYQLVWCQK
Chain of Large T antigen (P03070 whole entry): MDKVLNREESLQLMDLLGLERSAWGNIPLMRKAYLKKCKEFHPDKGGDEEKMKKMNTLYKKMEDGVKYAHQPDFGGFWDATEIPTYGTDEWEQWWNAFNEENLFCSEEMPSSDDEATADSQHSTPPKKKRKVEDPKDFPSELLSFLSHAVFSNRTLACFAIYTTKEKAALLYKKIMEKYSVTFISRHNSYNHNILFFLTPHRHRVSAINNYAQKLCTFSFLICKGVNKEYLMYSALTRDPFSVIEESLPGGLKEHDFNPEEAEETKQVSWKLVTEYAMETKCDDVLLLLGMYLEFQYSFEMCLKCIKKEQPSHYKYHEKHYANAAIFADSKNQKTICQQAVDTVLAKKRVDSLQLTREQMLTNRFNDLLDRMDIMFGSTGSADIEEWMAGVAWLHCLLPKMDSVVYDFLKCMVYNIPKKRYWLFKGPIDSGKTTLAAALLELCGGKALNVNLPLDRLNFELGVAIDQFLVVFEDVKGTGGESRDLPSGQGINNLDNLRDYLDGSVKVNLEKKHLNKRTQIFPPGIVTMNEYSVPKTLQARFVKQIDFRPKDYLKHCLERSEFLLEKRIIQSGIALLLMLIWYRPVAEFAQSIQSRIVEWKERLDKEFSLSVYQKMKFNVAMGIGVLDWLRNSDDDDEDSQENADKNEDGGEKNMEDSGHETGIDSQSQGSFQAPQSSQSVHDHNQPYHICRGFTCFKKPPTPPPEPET

With `CC(C)(C)OC(=O)NCCCC[C@H](NC(=O)c1[nH]cnc1C(=O)Nc1ccc(CNC(=O)OC(C)(C)C)cc1)C(=O)OC(C)(C)C` the AC50 (Paired box protein Pax-8) was 4.41 µM (active) and the AC50 [1] was 7.72 µM (active).
In the case of `Cc1cccc(C(=O)Nc2nnc(SCC(=O)NCc3ccco3)s2)c1`, the IC50 (Beta-lactamase [2]) is reported as > 59.6 µM (inactive), the IC50 (Beta-lactamase [3]) is reported as > 59.6 µM (inactive) and the IC50 (Beta-lactamase [4]) is reported as > 59.6 µM (inactive).
For `O=C(COc1ccc(Cl)cc1)N1CCN(Cc2ccc([N+](=O)[O-])cc2)CC1`, the IC50 (Beta-galactosidase) was > 80 µM (inactive).
In the case of `Cn1c(=N)c(S(=O)(=O)c2ccccc2)cc2c(=O)n3ccccc3nc21`, the IC50 (Bcl-2-like protein 10) is reported as > 12.5 µM (inactive), the AC50 (cells [5]) is reported as > 52 µM (inactive) and the AC50 (cells [6]) is reported as 1.26 µM (active).
With `Cc1cccc(C)c1NC(=O)CNC(=O)C(C)N1CCCCC1` (stereo unspecified) the AC50 (HEK293) was > 52 µM (inactive) and the AC50 [7] was > 52 µM (inactive).
For `O=C(C[C@H]1C(=O)N(Cc2ccccc2)C[C@@H]1c1ccc(Br)cc1)Nc1ccc(Br)cc1`, the CC50 (Vero) was > 25 µM (active), the IC50 [8] was 3.46 µM (active) and the IC50 [9] was 83.3 µM (inactive). The IC50 [10] was 1.78 µM (active) and the IC50 [11] was 66.5 µM (inactive).
For `CN1/C(=C\C=N\NC(=O)c2ccc(O)cc2)C(C)(C)c2ccccc21`, the IC50 (Large T antigen) was 20.5 µM (active), the AC50 (INS1) was 5.43 µM (active) and the CC50 [12] was 100 µM (active). The IC50 (Protein Wnt-3a) was 15.4 µM (active), the IC50 [13] was 60.3 µM (active) and the IC50 [14] was 31.1 µM (inactive).
For `CN(C[C@H]1N[C@@H](CO)[C@@H]1c1ccc(C2=CCCC2)cc1)C(=O)c1ccc(F)cc1`, the AC50 [15] was 13 µM (active), the AC50 (Paired box protein Pax-8) was 0.895 µM (active) and the AC50 [16] was 3.27 µM (active). For the same compound, the AC50 [17] was 3.25 µM (active), the AC50 [18] was 0.25 µM (active) and the AC50 [19] was 5.63 µM (active). For the same compound, the AC50 [20] was 4.15 µM (active), the AC50 [21] was 1.57 µM (active) and the AC50 [22] was 5.17 µM (active). For the same compound, the AC50 [23] was 9.17 µM (active), the AC50 [24] was 4.04 µM (active) and the AC50 [25] was 2.21 µM (active).
With `C[C@@H]1CCCCO[C@@H](CN(C)Cc2ccc(Cl)c(Cl)c2)[C@H](C)CN([C@@H](C)CO)C(=O)c2cc(NC(=O)Nc3ccccc3)ccc2O1` the AC50 (Paired box protein Pax-8) was 11.6 µM (active) and the AC50 [26] was 3.09 µM (active).
